Assay results as given in patent US4835152A, “1-(4-Aminophenyl)-4-methyl-7,8-methylenedioxy-3,4-dihydro-5H-2,3-b enzodiazepine and acid addition salts thereof same” (Biogal Gyogyszergyar, priority 1986, dated 1989).

Key:
[1] = Motility studies on mice (spontaneous motor activity, two-hour experiment); type: in vivo, male mice; settings: for Increase in motility: 2 h
Experimental: 1.a. Motility studies on mice
For studying how the compound prepared according to Example 1 increases the motility in male mice, two-hour experiments were carried out. In order to determine the spontaneous motor activity, the component of hunger-activitywas excluded (the mice were not fasted), thus only the exploratory activity was recorded. The test animals were placed into the observation box immediately after the intraperitoneal treatment.

Acute toxicity in rats = settings: rat, in vivo
From the text: (§1) The acute toxicity values (LD50) of the compound of Example 1: […]

[2] = system: oxotremorine-induced tremor; assay: Inhibition of oxotremorine-induced tremor in mice (method of Rathbun and Slater); type: in vivo, male CFLP mice; settings: for Inhibition in relation to control group: oxotremorine 1 mg/kg i.p. 1 h later
Experimental: (§2) 4. Inhibition of oxotremorine in mice
(§3) The examinations were carried out according to the method of R. C. Rathbun and I. H. Slater [Psychopharm. 4, 114 (1963)]. One hour after male, starving CFLP mice were orally pre-treated with a dose of 6.25, 12.5 or 25.0 mg/kg of the compound of Example 1, they were intraperitoneally treated with a dose of 1 mg/kg of 1-[4-(1-pyrrolidinyl)-2-butinyl]-2-pyrrolidinone (oxotremorine).
(§4) The inhibition of oxotremorine-induced tremor and salivation exerted by the compound of Example 1 was measured in relation to the control group treated with oxotremorine only. The strength of the inhibition was expressed in scores (0, 0.5, 1, 2 or 3).

[3] = Motility studies on rats (2 hours); type: in vivo, male CFY rats; settings: for Increase in motility: 2 h
Experimental: 1.b. Motility studies on rats
Male CFY rats weighing 120 to 140 g were treated intraperitoneally in groups of three with a dose of 10, 20, 25 or 30 mg/kg of the compound of Example 1, and were immediately placed into the observation box. The experiment lasted for 2 hours.

[4] = system: oxotremorine-induced salivation; assay: Inhibition of oxotremorine-induced salivation in mice; type: in vivo, male CFLP mice; settings: 6.25-25.0 mg/kg p.o.
Experimental: as §2, §3, §4

Emetic side-effect = settings: in vivo
Acute toxicity in mice = settings: mouse, in vivo
From the text: as §1

[5] = Examination of stereotypy in rats (method of Costall and Naylor); type: in vivo; design: Stereotypy, average score: scale not given here
From the text: 3. Examination of stereotypy in rats
For the measurement of stereotypy the method of B. Costall and R. I. Naylor [Eur. J. Pharmacol. 18, 95 (1972)] was used. The score values in Table 4 are average score values obtained at the time of reading.

[6] = Dependence studies, DAF (drug admixed food) method; settings: 0.05% (w/w) in food, 6 weeks, average daily dose 40 mg/kg, two weeks after withdrawal, listed as compound of the invention
[7] = system: haloperidol-induced decrease in SMA; assay: Measurement of the haloperidol-antagonistic effect in mice (spontaneous motor activity, SMA); type: in vivo, male CFLP mice
Experimental: 2. Measurement of the haloperidol-antagonistic effect in mice
Male CFLP mice weighing 20 to 22 g were treated intraperitoneally with a dose of 0.5 mg/kg of 4-[4-(4-chlorophenyl)-4-hydroxy-1-piperidinyl]-1-(4-fluorophenyl)-1-butanone (haloperidol) and the spontaneous motor activity (SMA) was measured, in relation to the data obtained in the controls, by a capacitance-sensitive motimeter. Another group of the test animals was treated also with a dose of 30 mg/kg of the compound of Example 1, 15 minutes after the administration of haloperidol.

CC1Cc2cc3c(cc2C(c2ccc(N)cc2)=NN1)OCO3 (stereo not drawn) [Example 1, 1-(4-aminophenyl)-4-methyl-7,8-methylenedioxy-3,4-dihydro-5H-2,3-benzodiazepine]
Increase in motility ([1]; 3 mg/kg i.p.): 15% | Increase in motility ([1]; 10 mg/kg i.p.): 131% | Increase in motility ([1]; 30 mg/kg i.p.): 473% | Effect on motility or spontaneous motor activity (in words) ([1]; i.p.): increases the motility or spontaneous motor activity of mice and rats in a dose-dependent manner | LD50 (Acute toxicity in rats; ip): 250 mg/kg | LD50 (Acute toxicity in rats; po): 350 mg/kg | Inhibition in relation to control group ([2]; 6.25 mg/kg p.o.): 17% | Inhibition in relation to control group ([2]; 12.5 mg/kg p.o.): 50% | Inhibition in relation to control group ([2]; 25.0 mg/kg p.o.): 74% | ED50 ([2]; Mus musculus, po, range (9.5-19.1) printed in the next line): 13.5 mg/kg | Effect on oxotremorine-induced tremor (in words) ([2]; mice): significantly decreases the tremor | Increase in motility ([3]; 10 mg/kg i.p.): 21% | Increase in motility ([3]; 20 mg/kg i.p.): 87% | Increase in motility ([3]; 25 mg/kg i.p.): 106% | Increase in motility ([3]; 30 mg/kg i.p.): 462% | Effect on motility or spontaneous motor activity (in words) ([3]; i.p.): increases the motility or spontaneous motor activity of mice and rats in a dose-dependent manner | Effect on oxotremorine-induced salivation (in words) [4]: does not inhibit the oxotremorine-induced salivation | Emetic side-effect (Emetic side-effect): does not have the unfavourable side-effects of the known psychostimulants (emetic effect, proneness to dependence) | LD50 (Acute toxicity in mice; ip): 260 mg/kg | LD50 (Acute toxicity in mice; po): 300 mg/kg | Stereotypy, average score ([5]; 3.125 mg/kg i.p., 15 min): 0.3 | Stereotypy, average score ([5]; 3.125 mg/kg i.p., 30 min): 0.3 | Stereotypy, average score ([5]; 3.125 mg/kg i.p., 60 min): 0.1 | Stereotypy, average score ([5]; 3.125 mg/kg i.p., 90 min): 0 | Stereotypy, average score ([5]; 3.125 mg/kg i.p., 120 min): 0 | Stereotypy, average score ([5]; 3.125 mg/kg i.p., 180 min): 0 | Stereotypy, average score ([5]; 3.125 mg/kg i.p., 240 min): 0 | Stereotypy, average score ([5]; 6.25 mg/kg i.p., 15 min): 1.0 | Stereotypy, average score ([5]; 6.25 mg/kg i.p., 30 min): 1.3 | Stereotypy, average score ([5]; 6.25 mg/kg i.p., 60 min): 0.3 | Stereotypy, average score ([5]; 6.25 mg/kg i.p., 90 min): 0 | Stereotypy, average score ([5]; 6.25 mg/kg i.p., 120 min): 0 | Stereotypy, average score ([5]; 6.25 mg/kg i.p., 180 min): 0 | Stereotypy, average score ([5]; 6.25 mg/kg i.p., 240 min): 0 | Stereotypy, average score ([5]; 6.25 mg/kg p.o., 15 min): 0.7 | Stereotypy, average score ([5]; 6.25 mg/kg p.o., 30 min): 0.7 | Stereotypy, average score ([5]; 6.25 mg/kg p.o., 60 min): 0.6 | Stereotypy, average score ([5]; 6.25 mg/kg p.o., 90 min): 0 | Stereotypy, average score ([5]; 6.25 mg/kg p.o., 120 min): 0 | Stereotypy, average score ([5]; 6.25 mg/kg p.o., 180 min): 0 | Stereotypy, average score ([5]; 6.25 mg/kg p.o., 240 min): 0 | Stereotypy, average score ([5]; 12.5 mg/kg i.p., 15 min): 1.2 | Stereotypy, average score ([5]; 12.5 mg/kg i.p., 30 min): 1.3 | Stereotypy, average score ([5]; 12.5 mg/kg i.p., 60 min): 1.1 | Stereotypy, average score ([5]; 12.5 mg/kg i.p., 90 min): 1.0 | Stereotypy, average score ([5]; 12.5 mg/kg i.p., 120 min): 0 | Stereotypy, average score ([5]; 12.5 mg/kg i.p., 180 min): 0 | Stereotypy, average score ([5]; 12.5 mg/kg i.p., 240 min): 0 | Stereotypy, average score ([5]; 12.5 mg/kg p.o., 15 min): 0.4 | Stereotypy, average score ([5]; 12.5 mg/kg p.o., 30 min): 0.9 | Stereotypy, average score ([5]; 12.5 mg/kg p.o., 60 min): 1.4 | Stereotypy, average score ([5]; 12.5 mg/kg p.o., 90 min): 0.4 | Stereotypy, average score ([5]; 12.5 mg/kg p.o., 120 min): 0 | Stereotypy, average score ([5]; 12.5 mg/kg p.o., 180 min): 0 | Stereotypy, average score ([5]; 12.5 mg/kg p.o., 240 min): 0 | Stereotypy, average score ([5]; 25.0 mg/kg i.p., 15 min): 1.3 | Stereotypy, average score ([5]; 25.0 mg/kg i.p., 30 min): 1.5 | Stereotypy, average score ([5]; 25.0 mg/kg i.p., 60 min): 1.8 | Stereotypy, average score ([5]; 25.0 mg/kg i.p., 90 min): 1.6 | Stereotypy, average score ([5]; 25.0 mg/kg i.p., 120 min): 1.0 | Stereotypy, average score ([5]; 25.0 mg/kg i.p., 180 min): 0.8 | Stereotypy, average score ([5]; 25.0 mg/kg i.p., 240 min): 0.4 | Stereotypy, average score ([5]; 25.0 mg/kg p.o., 15 min): 0.7 | Stereotypy, average score ([5]; 25.0 mg/kg p.o., 30 min): 1.1 | Stereotypy, average score ([5]; 25.0 mg/kg p.o., 60 min): 1.5 | Stereotypy, average score ([5]; 25.0 mg/kg p.o., 90 min): 0.6 | Stereotypy, average score ([5]; 25.0 mg/kg p.o., 120 min): 0.6 | Stereotypy, average score ([5]; 25.0 mg/kg p.o., 180 min): 0.3 | Stereotypy, average score ([5]; 25.0 mg/kg p.o., 240 min): 0 | Stereotypy, average score ([5]; 50.0 mg/kg i.p., 15 min): 1.5 | Stereotypy, average score ([5]; 50.0 mg/kg i.p., 30 min): 2.1 | Stereotypy, average score ([5]; 50.0 mg/kg i.p., 60 min): 2.7 | Stereotypy, average score ([5]; 50.0 mg/kg i.p., 90 min): 2.4 | Stereotypy, average score ([5]; 50.0 mg/kg i.p., 120 min): 2.4 | Stereotypy, average score ([5]; 50.0 mg/kg i.p., 180 min): 1.7 | Stereotypy, average score ([5]; 50.0 mg/kg i.p., 240 min): 0.6 | Stereotypy, average score ([5]; 50.0 mg/kg p.o., 15 min): 1.7 | Stereotypy, average score ([5]; 50.0 mg/kg p.o., 30 min): 1.9 | Stereotypy, average score ([5]; 50.0 mg/kg p.o., 60 min): 2.3 | Stereotypy, average score ([5]; 50.0 mg/kg p.o., 90 min): 2.3 | Stereotypy, average score ([5]; 50.0 mg/kg p.o., 120 min): 1.9 | Stereotypy, average score ([5]; 50.0 mg/kg p.o., 180 min): 1.1 | Stereotypy, average score ([5]; 50.0 mg/kg p.o., 240 min): 0.2 | Stereotypy (in words) ([5]; rats): causes stereotypy. This effect develops earlier but it is somewhat weaker than the effect of bromocriptine | Withdrawal symptoms or signs of dependence [6]: does not have the unfavourable side-effects of the known psychostimulants (emetic effect, proneness to dependence) | Antagonism of haloperidol-induced decrease in SMA ([7]; 30 mg/kg, 15 min after haloperidol 0.5 mg/kg i.p.): significantly antagonized | Decrease in SMA ([7]; haloperidol 0.5 mg/kg i.p. + compound of Example 1 30 mg/kg i.p. 15 min later): 17.1%
